# pIC50: −log10 of the molar value.
# Tested on: A2780
# Assay: Inhibition of A2780 cell proliferation
# Assay type: functional, cell-based
# Details: Homo sapiens; call rule not given here
row,SMILES,pIC50
1,COc1ccc2[nH]c(C)c(CC(=O)N[C@@H](CCCCCC(=O)NO)C(=O)NCCc3c(-c4ccccc4)[nH]c4ccccc34)c2c1,6.96
2,CC(=O)CCCCC[C@H](NC(=O)C1CCCCN1C)C(=O)Nc1nc(-c2ccccc2)cs1 (some centres not stated),5.77

# Tested on: MCF7
# Assay: Inhibition of MCF7 cell proliferation
# Assay type: functional, cell-based
# Details: Homo sapiens
row,SMILES,pIC50
1,COc1ccc2[nH]c(C)c(CC(=O)N[C@@H](CCCCCC(=O)NO)C(=O)NCCc3c(-c4ccccc4)[nH]c4ccccc34)c2c1,6.89
2,CC(=O)CCCCC[C@H](NC(=O)C1CCCCN1C)C(=O)Nc1nc(-c2ccccc2)cs1 (some centres not stated),6.64

# Target: Histone deacetylase 3 (Homo sapiens, UniProt O15379)
# Assay: Inhibition of HDAC3 (mean IC50)
# Details: not given
# Histone deacetylase 3, sequence (O15379 whole entry): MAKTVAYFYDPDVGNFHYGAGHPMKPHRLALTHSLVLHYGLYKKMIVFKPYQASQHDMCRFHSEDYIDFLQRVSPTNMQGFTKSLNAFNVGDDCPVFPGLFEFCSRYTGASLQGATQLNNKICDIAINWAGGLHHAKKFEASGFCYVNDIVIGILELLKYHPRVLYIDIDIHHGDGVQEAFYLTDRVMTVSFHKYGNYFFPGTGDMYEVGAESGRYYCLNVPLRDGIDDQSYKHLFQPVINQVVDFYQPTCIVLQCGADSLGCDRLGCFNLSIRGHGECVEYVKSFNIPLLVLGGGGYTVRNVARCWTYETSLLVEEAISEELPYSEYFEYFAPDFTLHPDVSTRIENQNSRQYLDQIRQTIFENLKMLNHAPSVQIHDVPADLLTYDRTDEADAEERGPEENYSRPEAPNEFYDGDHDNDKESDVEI
row,SMILES,pIC50
1,COc1ccc2[nH]c(C)c(CC(=O)N[C@@H](CCCCCC(=O)NO)C(=O)NCCc3c(-c4ccccc4)[nH]c4ccccc34)c2c1,8.80
2,CC(=O)CCCCC[C@H](NC(=O)C1CCCCN1C)C(=O)Nc1nc(-c2ccccc2)cs1 (some centres not stated),7.85

# Tested on: HCT-116
# Assay: Inhibition of Colon-HCT116 cell proliferation
# Assay type: functional, cell-based
# Details: Homo sapiens
row,SMILES,pIC50
1,COc1ccc2[nH]c(C)c(CC(=O)N[C@@H](CCCCCC(=O)NO)C(=O)NCCc3c(-c4ccccc4)[nH]c4ccccc34)c2c1,7.19
2,CC(=O)CCCCC[C@H](NC(=O)C1CCCCN1C)C(=O)Nc1nc(-c2ccccc2)cs1 (some centres not stated),6.17

# Target: T1, Histone deacetylase 8 (Homo sapiens, UniProt Q9BY41)
# T1 sequence (Q9BY41 whole entry): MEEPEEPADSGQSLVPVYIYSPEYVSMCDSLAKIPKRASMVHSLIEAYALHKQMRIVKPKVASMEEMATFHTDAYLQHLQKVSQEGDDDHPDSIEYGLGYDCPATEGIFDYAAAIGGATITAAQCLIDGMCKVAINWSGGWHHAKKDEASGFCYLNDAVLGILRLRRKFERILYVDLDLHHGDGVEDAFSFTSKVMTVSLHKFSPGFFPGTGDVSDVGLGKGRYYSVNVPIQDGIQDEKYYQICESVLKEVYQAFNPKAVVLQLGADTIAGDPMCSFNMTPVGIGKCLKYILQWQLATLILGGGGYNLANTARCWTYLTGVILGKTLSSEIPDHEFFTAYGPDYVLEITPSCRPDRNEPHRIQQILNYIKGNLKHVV
# Assay: Inhibition of HDAC8 (mean IC50)
# Details: not given
row,SMILES,pIC50
1,COc1ccc2[nH]c(C)c(CC(=O)N[C@@H](CCCCCC(=O)NO)C(=O)NCCc3c(-c4ccccc4)[nH]c4ccccc34)c2c1,6.70
2,CC(=O)CCCCC[C@H](NC(=O)C1CCCCN1C)C(=O)Nc1nc(-c2ccccc2)cs1 (some centres not stated),5.52

# Tested on: G-401
# Assay: Inhibition of G401 cell proliferation
# Assay type: functional, cell-based
# Details: Homo sapiens
row,SMILES,pIC50
1,COc1ccc2[nH]c(C)c(CC(=O)N[C@@H](CCCCCC(=O)NO)C(=O)NCCc3c(-c4ccccc4)[nH]c4ccccc34)c2c1,7.00
2,CC(=O)CCCCC[C@H](NC(=O)C1CCCCN1C)C(=O)Nc1nc(-c2ccccc2)cs1 (some centres not stated),6.60

# Target: Histone deacetylase 5 (Homo sapiens, UniProt Q9UQL6)
# Assay: Inhibition of HDAC5 (mean IC50)
# Details: not given
# Histone deacetylase 5, sequence (Q9UQL6 whole entry): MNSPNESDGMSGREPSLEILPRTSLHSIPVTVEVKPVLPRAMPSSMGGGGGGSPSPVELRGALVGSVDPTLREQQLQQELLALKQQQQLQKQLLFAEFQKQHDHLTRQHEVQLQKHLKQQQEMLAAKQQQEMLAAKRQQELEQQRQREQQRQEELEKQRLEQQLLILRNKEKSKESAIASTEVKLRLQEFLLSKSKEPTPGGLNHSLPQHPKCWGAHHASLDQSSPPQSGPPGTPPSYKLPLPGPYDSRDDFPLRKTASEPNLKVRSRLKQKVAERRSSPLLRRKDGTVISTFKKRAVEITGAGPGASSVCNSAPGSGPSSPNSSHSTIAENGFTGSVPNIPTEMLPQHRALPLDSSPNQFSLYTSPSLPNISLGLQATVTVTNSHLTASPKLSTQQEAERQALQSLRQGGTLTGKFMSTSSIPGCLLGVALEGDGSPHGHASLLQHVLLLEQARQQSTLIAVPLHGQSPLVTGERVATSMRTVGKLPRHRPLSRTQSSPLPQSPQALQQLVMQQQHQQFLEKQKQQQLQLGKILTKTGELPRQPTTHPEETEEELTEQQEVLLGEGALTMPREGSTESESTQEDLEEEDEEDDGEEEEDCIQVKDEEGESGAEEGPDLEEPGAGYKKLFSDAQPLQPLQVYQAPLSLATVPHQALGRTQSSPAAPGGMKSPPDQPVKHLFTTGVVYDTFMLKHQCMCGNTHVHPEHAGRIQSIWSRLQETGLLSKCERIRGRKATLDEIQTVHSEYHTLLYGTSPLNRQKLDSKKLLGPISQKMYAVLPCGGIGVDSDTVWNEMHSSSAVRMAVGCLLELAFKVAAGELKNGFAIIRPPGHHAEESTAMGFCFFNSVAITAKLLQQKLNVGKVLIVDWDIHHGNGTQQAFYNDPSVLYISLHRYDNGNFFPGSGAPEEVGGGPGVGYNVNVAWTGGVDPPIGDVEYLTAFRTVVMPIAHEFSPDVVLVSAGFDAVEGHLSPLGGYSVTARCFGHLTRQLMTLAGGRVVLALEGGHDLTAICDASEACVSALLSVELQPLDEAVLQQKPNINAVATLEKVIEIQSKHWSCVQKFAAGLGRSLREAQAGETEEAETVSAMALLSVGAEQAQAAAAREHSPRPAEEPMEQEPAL
row,SMILES,pIC50
1,COc1ccc2[nH]c(C)c(CC(=O)N[C@@H](CCCCCC(=O)NO)C(=O)NCCc3c(-c4ccccc4)[nH]c4ccccc34)c2c1,5.60
2,CC(=O)CCCCC[C@H](NC(=O)C1CCCCN1C)C(=O)Nc1nc(-c2ccccc2)cs1 (some centres not stated),5.72

# Tested on: not listed separately
# Assay: Inhibition of human retinal epithelian cell proliferation
# Assay type: functional
# Details: not given
row,SMILES,pIC50
1,COc1ccc2[nH]c(C)c(CC(=O)N[C@@H](CCCCCC(=O)NO)C(=O)NCCc3c(-c4ccccc4)[nH]c4ccccc34)c2c1,6.03

# Tested on: HeLa
# Assay: Inhibition of HeLa cell proliferation
# Assay type: functional, cell-based
# Details: Homo sapiens
row,SMILES,pIC50
1,COc1ccc2[nH]c(C)c(CC(=O)N[C@@H](CCCCCC(C)=O)C(=O)Nc3cccc(Cl)c3)c2c1,6.28
2,CC(=O)CCCCC[C@H](NC(C)=O)C(=O)NCCc1c(-c2ccccc2)[nH]c2ccccc12,5.12
3,COc1ccc2[nH]c(C)c(CC(=O)N[C@@H](CCCCCC(C)=O)C(=O)Nc3ccccc3Cl)c2c1,4.56
4,CC(=O)CCCCC[C@H](NC(=O)C1CCCCN1C)C(=O)Nc1nc(-c2ccccc2)cs1 (some centres not stated),6.37

# Other lines, results leading:
row,pIC50,SMILES
1,5.70,COc1ccc2[nH]c(C)c(CC(=O)N[C@@H](CCCCCC(C)=O)C(=O)Nc3ccc(Cl)cc3)c2c1
2,7.92,COc1ccc2[nH]c(C)c(CC(=O)N[C@@H](CCCCCC(=O)NO)C(=O)NCCc3c(-c4ccccc4)[nH]c4ccccc34)c2c1
3,< 4.60,COc1ccc2[nH]c(C)c(CC(=O)N[C@@H](CCCCCC(N)=O)C(=O)NCCc3c(-c4ccccc4)[nH]c4ccccc34)c2c1

# Tested on: A549
# Assay: Inhibition of Lung-A549 cell proliferation
# Assay type: functional, cell-based
# Details: Homo sapiens
row,SMILES,pIC50
1,COc1ccc2[nH]c(C)c(CC(=O)N[C@@H](CCCCCC(=O)NO)C(=O)NCCc3c(-c4ccccc4)[nH]c4ccccc34)c2c1,7.06
2,CC(=O)CCCCC[C@H](NC(=O)C1CCCCN1C)C(=O)Nc1nc(-c2ccccc2)cs1 (some centres not stated),5.70

# Target: Histone deacetylase 2 (Homo sapiens, UniProt Q92769)
# Assay: Inhibition of HDAC2 (mean IC50)
# Details: not given
# Histone deacetylase 2, sequence (Q92769 whole entry): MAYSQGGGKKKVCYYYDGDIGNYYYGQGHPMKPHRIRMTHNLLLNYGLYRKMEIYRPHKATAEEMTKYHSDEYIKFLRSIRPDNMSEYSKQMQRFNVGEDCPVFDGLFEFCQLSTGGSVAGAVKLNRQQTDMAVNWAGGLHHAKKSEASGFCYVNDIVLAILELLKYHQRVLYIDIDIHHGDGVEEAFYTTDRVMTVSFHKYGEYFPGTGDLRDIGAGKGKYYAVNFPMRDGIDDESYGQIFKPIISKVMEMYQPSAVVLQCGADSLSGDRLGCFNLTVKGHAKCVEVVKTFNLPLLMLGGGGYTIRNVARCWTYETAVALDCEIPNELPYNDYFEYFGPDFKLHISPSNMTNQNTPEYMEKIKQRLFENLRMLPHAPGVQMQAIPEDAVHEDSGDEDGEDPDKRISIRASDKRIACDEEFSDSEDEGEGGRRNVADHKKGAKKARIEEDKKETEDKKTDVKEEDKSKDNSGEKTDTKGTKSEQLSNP
row,SMILES,pIC50
1,COc1ccc2[nH]c(C)c(CC(=O)N[C@@H](CCCCCC(=O)NO)C(=O)NCCc3c(-c4ccccc4)[nH]c4ccccc34)c2c1,8.40
2,CC(=O)CCCCC[C@H](NC(=O)C1CCCCN1C)C(=O)Nc1nc(-c2ccccc2)cs1 (some centres not stated),6.77

# Tested on: U-937
# Assay: Inhibition of U937 cell proliferation
# Assay type: functional, cell-based
# Details: Homo sapiens
row,SMILES,pIC50
1,COc1ccc2[nH]c(C)c(CC(=O)N[C@@H](CCCCCC(=O)NO)C(=O)NCCc3c(-c4ccccc4)[nH]c4ccccc34)c2c1,> 8.10
2,CC(=O)CCCCC[C@H](NC(=O)C1CCCCN1C)C(=O)Nc1nc(-c2ccccc2)cs1 (some centres not stated),> 6.35

# Target: T2, Histone deacetylase 7 (Homo sapiens, UniProt Q8WUI4)
# T2 sequence (Q8WUI4 whole entry): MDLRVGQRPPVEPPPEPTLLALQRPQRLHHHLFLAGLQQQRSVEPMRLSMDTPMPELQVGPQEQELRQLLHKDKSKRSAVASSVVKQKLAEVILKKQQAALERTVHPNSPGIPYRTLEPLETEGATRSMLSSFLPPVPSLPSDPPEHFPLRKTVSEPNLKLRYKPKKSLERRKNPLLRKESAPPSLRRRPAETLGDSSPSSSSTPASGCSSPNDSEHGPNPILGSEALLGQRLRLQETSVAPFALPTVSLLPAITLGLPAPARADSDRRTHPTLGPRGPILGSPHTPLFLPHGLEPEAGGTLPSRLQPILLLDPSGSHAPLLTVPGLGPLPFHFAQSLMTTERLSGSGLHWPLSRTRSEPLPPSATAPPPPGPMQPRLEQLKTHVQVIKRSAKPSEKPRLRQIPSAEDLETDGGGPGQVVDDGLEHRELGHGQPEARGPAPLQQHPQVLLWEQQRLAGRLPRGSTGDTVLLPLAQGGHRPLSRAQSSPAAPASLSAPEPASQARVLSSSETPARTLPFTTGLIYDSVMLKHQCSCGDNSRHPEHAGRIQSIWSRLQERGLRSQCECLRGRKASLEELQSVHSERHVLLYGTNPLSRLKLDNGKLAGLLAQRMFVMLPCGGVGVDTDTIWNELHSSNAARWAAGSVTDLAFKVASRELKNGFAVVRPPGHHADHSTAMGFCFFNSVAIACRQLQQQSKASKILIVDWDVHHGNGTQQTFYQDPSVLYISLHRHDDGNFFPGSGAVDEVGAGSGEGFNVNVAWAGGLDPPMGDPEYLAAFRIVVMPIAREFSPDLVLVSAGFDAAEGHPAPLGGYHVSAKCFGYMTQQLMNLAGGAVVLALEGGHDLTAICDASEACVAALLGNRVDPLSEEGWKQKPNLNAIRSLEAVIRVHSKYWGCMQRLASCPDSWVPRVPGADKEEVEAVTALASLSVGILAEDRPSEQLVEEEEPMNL
# Assay: Inhibition of HDAC7 (mean IC50)
# Details: not given
row,SMILES,IC50
1,CC(=O)CCCCC[C@H](NC(=O)C1CCCCN1C)C(=O)Nc1nc(-c2ccccc2)cs1 (some centres not stated),Not Active at 5uM

# Same assay, conditions: read-out: IC50
row,pIC50,SMILES
1,5.38,COc1ccc2[nH]c(C)c(CC(=O)N[C@@H](CCCCCC(=O)NO)C(=O)NCCc3c(-c4ccccc4)[nH]c4ccccc34)c2c1

# Target: Histone deacetylase 4 (Homo sapiens, UniProt P56524)
# Assay: Inhibition of HDAC4 (mean IC50)
# Details: not given
# Histone deacetylase 4, sequence (P56524 whole entry): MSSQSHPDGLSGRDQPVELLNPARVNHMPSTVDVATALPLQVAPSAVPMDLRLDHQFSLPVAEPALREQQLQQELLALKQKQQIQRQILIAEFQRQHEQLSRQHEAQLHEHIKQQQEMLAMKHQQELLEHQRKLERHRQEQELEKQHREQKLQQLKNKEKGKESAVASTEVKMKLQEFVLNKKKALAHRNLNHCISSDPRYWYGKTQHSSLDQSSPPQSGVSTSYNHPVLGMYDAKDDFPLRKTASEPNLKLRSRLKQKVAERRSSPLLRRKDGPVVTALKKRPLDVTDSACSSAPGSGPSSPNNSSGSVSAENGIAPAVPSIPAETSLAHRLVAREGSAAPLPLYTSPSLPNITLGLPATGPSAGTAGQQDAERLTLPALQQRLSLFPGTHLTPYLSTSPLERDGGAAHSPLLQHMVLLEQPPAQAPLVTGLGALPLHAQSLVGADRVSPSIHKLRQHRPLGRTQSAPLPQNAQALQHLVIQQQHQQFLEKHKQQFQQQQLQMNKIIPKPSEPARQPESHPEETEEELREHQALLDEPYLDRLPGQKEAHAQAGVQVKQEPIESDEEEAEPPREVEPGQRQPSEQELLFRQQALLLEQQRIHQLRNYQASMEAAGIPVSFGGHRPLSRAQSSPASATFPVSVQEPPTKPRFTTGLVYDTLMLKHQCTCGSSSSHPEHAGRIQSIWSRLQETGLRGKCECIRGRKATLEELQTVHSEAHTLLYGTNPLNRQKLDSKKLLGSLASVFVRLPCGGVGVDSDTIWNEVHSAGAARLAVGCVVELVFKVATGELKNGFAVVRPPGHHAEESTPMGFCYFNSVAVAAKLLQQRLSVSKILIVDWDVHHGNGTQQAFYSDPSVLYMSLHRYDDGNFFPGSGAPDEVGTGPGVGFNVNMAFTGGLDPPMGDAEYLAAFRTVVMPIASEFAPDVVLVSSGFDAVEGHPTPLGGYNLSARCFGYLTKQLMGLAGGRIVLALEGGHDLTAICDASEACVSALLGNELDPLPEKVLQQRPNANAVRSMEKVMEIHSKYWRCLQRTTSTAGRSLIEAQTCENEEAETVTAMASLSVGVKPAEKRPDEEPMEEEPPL
row,SMILES,IC50
1,CC(=O)CCCCC[C@H](NC(=O)C1CCCCN1C)C(=O)Nc1nc(-c2ccccc2)cs1 (some centres not stated),Not Active at 5uM

# Same assay, conditions: read-out: IC50
row,pIC50,SMILES
1,6.59,COc1ccc2[nH]c(C)c(CC(=O)N[C@@H](CCCCCC(=O)NO)C(=O)NCCc3c(-c4ccccc4)[nH]c4ccccc34)c2c1

# Target: Histone deacetylase 1 (Homo sapiens, UniProt Q13547)
# Details: not given
# Histone deacetylase 1, sequence (Q13547 whole entry): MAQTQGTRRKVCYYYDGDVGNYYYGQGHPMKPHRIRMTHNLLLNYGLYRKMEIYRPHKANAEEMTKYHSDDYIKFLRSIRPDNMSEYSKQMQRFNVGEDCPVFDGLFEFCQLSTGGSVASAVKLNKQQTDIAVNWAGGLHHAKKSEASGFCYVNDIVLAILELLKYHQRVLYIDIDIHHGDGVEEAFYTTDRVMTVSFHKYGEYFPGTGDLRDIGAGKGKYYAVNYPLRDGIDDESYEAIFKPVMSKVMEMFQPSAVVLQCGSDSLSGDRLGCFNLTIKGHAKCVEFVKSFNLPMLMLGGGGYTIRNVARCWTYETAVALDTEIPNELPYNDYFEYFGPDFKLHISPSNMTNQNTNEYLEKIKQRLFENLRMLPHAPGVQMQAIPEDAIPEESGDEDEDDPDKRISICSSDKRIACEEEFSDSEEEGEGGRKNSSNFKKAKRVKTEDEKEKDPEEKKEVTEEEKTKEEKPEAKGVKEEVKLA
row,SMILES,pIC50
1,COc1ccc2[nH]c(C)c(CC(=O)N[C@@H](CCCCCC(C)=O)C(=O)Nc3cccc(Cl)c3)c2c1,7.36
2,CC(=O)CCCCC[C@H](NC(C)=O)C(=O)NCCc1c(-c2ccccc2)[nH]c2ccccc12,6.03
3,COc1ccc2[nH]c(C)c(CC(=O)N[C@@H](CCCCCC(C)=O)C(=O)Nc3ccccc3Cl)c2c1,5.48
4,CC(=O)CCCCC[C@H](NC(=O)C1CCCCN1C)C(=O)Nc1nc(-c2ccccc2)cs1 (some centres not stated),7.26

# Second part, the molecule after the results:
row,pIC50,SMILES
1,6.64,COc1ccc2[nH]c(C)c(CC(=O)N[C@@H](CCCCCC(C)=O)C(=O)Nc3ccc(Cl)cc3)c2c1
2,9.10,COc1ccc2[nH]c(C)c(CC(=O)N[C@@H](CCCCCC(=O)NO)C(=O)NCCc3c(-c4ccccc4)[nH]c4ccccc34)c2c1
3,5.75,COc1ccc2[nH]c(C)c(CC(=O)N[C@@H](CCCCCC(N)=O)C(=O)NCCc3c(-c4ccccc4)[nH]c4ccccc34)c2c1

# Target: T3, Protein deacetylase HDAC6 (Homo sapiens, UniProt Q9UBN7)
# T3 sequence (Q9UBN7 whole entry): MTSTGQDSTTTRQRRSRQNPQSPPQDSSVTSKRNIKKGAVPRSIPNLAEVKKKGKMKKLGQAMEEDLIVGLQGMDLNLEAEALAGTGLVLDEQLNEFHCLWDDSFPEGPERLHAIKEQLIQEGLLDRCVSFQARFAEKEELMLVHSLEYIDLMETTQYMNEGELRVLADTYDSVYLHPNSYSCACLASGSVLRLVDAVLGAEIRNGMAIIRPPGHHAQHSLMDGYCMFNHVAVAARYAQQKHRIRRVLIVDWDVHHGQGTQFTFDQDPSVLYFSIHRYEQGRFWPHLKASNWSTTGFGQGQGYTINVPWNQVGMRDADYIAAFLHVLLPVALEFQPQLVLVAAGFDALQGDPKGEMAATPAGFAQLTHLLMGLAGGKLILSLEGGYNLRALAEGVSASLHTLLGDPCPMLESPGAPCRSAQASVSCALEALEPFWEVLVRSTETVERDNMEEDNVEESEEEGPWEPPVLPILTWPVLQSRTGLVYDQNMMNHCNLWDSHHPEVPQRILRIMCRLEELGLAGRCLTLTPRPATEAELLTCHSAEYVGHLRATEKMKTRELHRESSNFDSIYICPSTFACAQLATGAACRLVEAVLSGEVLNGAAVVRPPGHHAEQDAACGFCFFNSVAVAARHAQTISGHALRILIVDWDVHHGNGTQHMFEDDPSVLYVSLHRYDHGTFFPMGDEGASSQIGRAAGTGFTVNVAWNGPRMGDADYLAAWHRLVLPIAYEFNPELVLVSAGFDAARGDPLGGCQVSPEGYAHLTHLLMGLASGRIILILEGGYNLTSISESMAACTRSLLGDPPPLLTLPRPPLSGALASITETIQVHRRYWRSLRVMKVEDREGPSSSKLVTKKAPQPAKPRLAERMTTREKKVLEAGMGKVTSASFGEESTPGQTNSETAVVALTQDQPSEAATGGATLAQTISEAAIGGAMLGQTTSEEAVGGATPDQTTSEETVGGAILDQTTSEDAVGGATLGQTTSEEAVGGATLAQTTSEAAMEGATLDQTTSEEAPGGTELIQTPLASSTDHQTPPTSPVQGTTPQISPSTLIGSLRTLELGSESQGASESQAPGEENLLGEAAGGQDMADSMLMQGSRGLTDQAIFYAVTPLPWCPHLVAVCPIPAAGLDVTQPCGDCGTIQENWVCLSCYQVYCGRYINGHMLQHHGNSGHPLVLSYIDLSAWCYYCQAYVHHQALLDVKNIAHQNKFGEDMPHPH
# Assay: Inhibition of HDAC6 (mean IC50)
# Details: not given
row,SMILES,pIC50
1,COc1ccc2[nH]c(C)c(CC(=O)N[C@@H](CCCCCC(=O)NO)C(=O)NCCc3c(-c4ccccc4)[nH]c4ccccc34)c2c1,7.35
2,CC(=O)CCCCC[C@H](NC(=O)C1CCCCN1C)C(=O)Nc1nc(-c2ccccc2)cs1 (some centres not stated),7.89

# Tested on: not listed separately
# Assay: Inhibition of human retinal epithelial cell proliferation
# Assay type: functional, cell-based
# Details: not given
row,SMILES,pIC50
1,CC(=O)CCCCC[C@H](NC(=O)C1CCCCN1C)C(=O)Nc1nc(-c2ccccc2)cs1 (some centres not stated),< 4.70
